Test results published in ChEMBL document CHEMBL5352433, “Design, synthesis, and biological evaluation of low-toxic lappaconitine derivatives as potential analgesics” (Eur J Med Chem, 2022).

Test system: Mus musculus
Assay: Analgesic activity against acetic acid-induced Kunming writhing mouse model assessed as inhibition of writhing at 10 mg/kg, sc pretreated with compound for 15 mins followed by acetic acid addition and measured after 15 mins relative to control
Assay type: functional
Conditions: 0.5 h, time 30 min

Compound | inhibition in vivo at 10 mg/kg
CCN1C[C@]2(OC(=O)c3ccccc3NC(=O)c3cccc(C#N)c3)CC[C@H](OC)[C@]34C1[C@H](C[C@H]23)[C@@]1(O)C[C@H](OC)[C@H]2C[C@@H]4[C@]1(O)[C@H]2OC | 10.7%
CCN1C[C@]2(OC(=O)c3ccccc3NC(=O)c3cccc(OC)c3)CC[C@H](OC)[C@]34C1[C@H](C[C@H]23)[C@@]1(O)C[C@H](OC)[C@H]2C[C@@H]4[C@]1(O)[C@H]2OC | 0%
CCN1C[C@]2(OC(=O)c3ccccc3NC(=O)c3ccccc3F)CC[C@H](OC)[C@]34C1[C@H](C[C@H]23)[C@@]1(O)C[C@H](OC)[C@H]2C[C@@H]4[C@]1(O)[C@H]2OC | 17.7%
CCN1C[C@]2(OC(=O)c3ccccc3NC(=O)c3ccc(Br)cc3)CC[C@H](OC)[C@]34C1[C@H](C[C@H]23)[C@@]1(O)C[C@H](OC)[C@H]2C[C@@H]4[C@]1(O)[C@H]2OC | 39.4%
CCN1C[C@]2(OC(=O)c3ccccc3NS(=O)(=O)c3ccc(Cl)cc3)CC[C@H](OC)[C@]34C1[C@H](C[C@H]23)[C@@]1(O)C[C@H](OC)[C@H]2C[C@@H]4[C@]1(O)[C@H]2OC | 11.7%
CCN1C[C@]2(OC(=O)c3ccccc3NC(=O)c3ccccc3Br)CC[C@H](OC)[C@]34C1[C@H](C[C@H]23)[C@@]1(O)C[C@H](OC)[C@H]2C[C@@H]4[C@]1(O)[C@H]2OC | 0%
CCN1C[C@]2(OC(=O)c3ccccc3NC(=O)c3cnc(Cl)cn3)CC[C@H](OC)[C@]34C1[C@H](C[C@H]23)[C@@]1(O)C[C@H](OC)[C@H]2C[C@@H]4[C@]1(O)[C@H]2OC | 31.5%
CCN1C[C@]2(OC(=O)c3ccccc3NC(=O)c3ccc(C)cc3C)CC[C@H](OC)[C@]34C1[C@H](C[C@H]23)[C@@]1(O)C[C@H](OC)[C@H]2C[C@@H]4[C@]1(O)[C@H]2OC | 0%
CCN1C[C@]2(OC(=O)c3ccccc3NC(=O)C3CCCC3)CC[C@H](OC)[C@]34C1[C@H](C[C@H]23)[C@@]1(O)C[C@H](OC)[C@H]2C[C@@H]4[C@]1(O)[C@H]2OC | 56.9%
CCN1C[C@]2(OC(=O)c3ccccc3NS(=O)(=O)CCCCl)CC[C@H](OC)[C@]34C1[C@H](C[C@H]23)[C@@]1(O)C[C@H](OC)[C@H]2C[C@@H]4[C@]1(O)[C@H]2OC | 32.1%
CCN1C[C@]2(OC(=O)c3ccccc3NC(=O)c3ccc(OC(F)(F)F)cc3)CC[C@H](OC)[C@]34C1[C@H](C[C@H]23)[C@@]1(O)C[C@H](OC)[C@H]2C[C@@H]4[C@]1(O)[C@H]2OC | 10%
CCN1C[C@]2(OC(=O)c3ccccc3NC(=O)c3cccc(Cl)c3)CC[C@H](OC)[C@]34C1[C@H](C[C@H]23)[C@@]1(O)C[C@H](OC)[C@H]2C[C@@H]4[C@]1(O)[C@H]2OC | 17.5%
CCN1C[C@]2(OC(=O)c3ccccc3NC(=O)c3ccc(Cl)cc3Cl)CC[C@H](OC)[C@]34C1[C@H](C[C@H]23)[C@@]1(O)C[C@H](OC)[C@H]2C[C@@H]4[C@]1(O)[C@H]2OC | 31.2%
CCN1C[C@]2(OC(=O)c3ccccc3NC(=O)c3ccccc3Cl)CC[C@H](OC)[C@]34C1[C@H](C[C@H]23)[C@@]1(O)C[C@H](OC)[C@H]2C[C@@H]4[C@]1(O)[C@H]2OC | 4.4%
CCN1C[C@]2(OC(=O)c3ccccc3NC(=O)c3ccccc3)CC[C@H](OC)[C@]34C1[C@H](C[C@H]23)[C@@]1(O)C[C@H](OC)[C@H]2C[C@@H]4[C@]1(O)[C@H]2OC | 0%
CCN1C[C@]2(OC(=O)c3ccccc3NC(=O)c3ccccc3N(C)C)CC[C@H](OC)[C@]34C1[C@H](C[C@H]23)[C@@]1(O)C[C@H](OC)[C@H]2C[C@@H]4[C@]1(O)[C@H]2OC | 34.2%
CCCCCCC(=O)Nc1ccccc1C(=O)O[C@@]12CC[C@H](OC)[C@]34C([C@H](C[C@H]13)[C@@]1(O)C[C@H](OC)[C@H]3C[C@@H]4[C@]1(O)[C@H]3OC)N(CC)C2 | 54.2%
CCN1C[C@]2(OC(=O)c3ccccc3NS(=O)(=O)CC)CC[C@H](OC)[C@]34C1[C@H](C[C@H]23)[C@@]1(O)C[C@H](OC)[C@H]2C[C@@H]4[C@]1(O)[C@H]2OC | 4%
CCN1C[C@]2(OC(=O)c3ccccc3NC(=O)c3ccc(Br)s3)CC[C@H](OC)[C@]34C1[C@H](C[C@H]23)[C@@]1(O)C[C@H](OC)[C@H]2C[C@@H]4[C@]1(O)[C@H]2OC | 12.8%
CCN1C[C@]2(OC(=O)c3ccccc3NC(=O)c3ccc(Cl)cc3)CC[C@H](OC)[C@]34C1[C@H](C[C@H]23)[C@@]1(O)C[C@H](OC)[C@H]2C[C@@H]4[C@]1(O)[C@H]2OC | 31.6%

Compound | inhibition in vivo at 10 mg/kg
CCN1C[C@]2(OC(=O)c3ccccc3NS(C)(=O)=O)CC[C@H](OC)[C@]34C1[C@H](C[C@H]23)[C@@]1(O)C[C@H](OC)[C@H]2C[C@@H]4[C@]1(O)[C@H]2OC | 22.8%
CCN1C[C@]2(OC(=O)c3ccccc3NC(=O)c3cccc(Br)c3)CC[C@H](OC)[C@]34C1[C@H](C[C@H]23)[C@@]1(O)C[C@H](OC)[C@H]2C[C@@H]4[C@]1(O)[C@H]2OC | 3.4%
CCN1C[C@]2(OC(=O)c3ccccc3NC(=O)C3CCCO3)CC[C@H](OC)[C@]34C1[C@H](C[C@H]23)[C@@]1(O)C[C@H](OC)[C@H]2C[C@@H]4[C@]1(O)[C@H]2OC (stereo not given in full) | 21.8%
CCN1C[C@]2(OC(=O)c3ccccc3NC(=O)c3ccc([N+](=O)[O-])cc3)CC[C@H](OC)[C@]34C1[C@H](C[C@H]23)[C@@]1(O)C[C@H](OC)[C@H]2C[C@@H]4[C@]1(O)[C@H]2OC | 27.2%
CCCOc1ccccc1C(=O)Nc1ccccc1C(=O)O[C@@]12CC[C@H](OC)[C@]34C([C@H](C[C@H]13)[C@@]1(O)C[C@H](OC)[C@H]3C[C@@H]4[C@]1(O)[C@H]3OC)N(CC)C2 | 19.2%
CCN1C[C@]2(OC(=O)c3ccccc3NC(=O)C3CCCCC3)CC[C@H](OC)[C@]34C1[C@H](C[C@H]23)[C@@]1(O)C[C@H](OC)[C@H]2C[C@@H]4[C@]1(O)[C@H]2OC | 34.5%
CCN1C[C@]2(OC(=O)c3ccccc3NS(=O)(=O)c3ccc(F)cc3)CC[C@H](OC)[C@]34C1[C@H](C[C@H]23)[C@@]1(O)C[C@H](OC)[C@H]2C[C@@H]4[C@]1(O)[C@H]2OC | 14.7%
CCN1C[C@]2(OC(=O)c3ccccc3NC(=O)c3ccc(Cl)c(Cl)c3)CC[C@H](OC)[C@]34C1[C@H](C[C@H]23)[C@@]1(O)C[C@H](OC)[C@H]2C[C@@H]4[C@]1(O)[C@H]2OC | 10.4%
CCc1ccc(C(=O)Nc2ccccc2C(=O)O[C@@]23CC[C@H](OC)[C@]45C([C@H](C[C@H]24)[C@@]2(O)C[C@H](OC)[C@H]4C[C@@H]5[C@]2(O)[C@H]4OC)N(CC)C3)cc1 | 26.7%
CCN1C[C@]2(OC(=O)c3ccccc3NC(=O)c3cccc(C)c3)CC[C@H](OC)[C@]34C1[C@H](C[C@H]23)[C@@]1(O)C[C@H](OC)[C@H]2C[C@@H]4[C@]1(O)[C@H]2OC | 36.9%
CCN1C[C@]2(OC(=O)c3ccccc3NC(=O)c3ccc(C#N)cc3)CC[C@H](OC)[C@]34C1[C@H](C[C@H]23)[C@@]1(O)C[C@H](OC)[C@H]2C[C@@H]4[C@]1(O)[C@H]2OC | 31.5%
CCCCc1ccc(C(=O)Nc2ccccc2C(=O)O[C@@]23CC[C@H](OC)[C@]45C([C@H](C[C@H]24)[C@@]2(O)C[C@H](OC)[C@H]4C[C@@H]5[C@]2(O)[C@H]4OC)N(CC)C3)cc1 | 28.2%
CCN1C[C@]2(OC(=O)c3ccccc3NC(=O)c3ccc(Cl)s3)CC[C@H](OC)[C@]34C1[C@H](C[C@H]23)[C@@]1(O)C[C@H](OC)[C@H]2C[C@@H]4[C@]1(O)[C@H]2OC | 27.8%
CCN1C[C@]2(OC(=O)c3ccccc3NC(=O)C3CCOC3)CC[C@H](OC)[C@]34C1[C@H](C[C@H]23)[C@@]1(O)C[C@H](OC)[C@H]2C[C@@H]4[C@]1(O)[C@H]2OC (stereo not given in full) | 34%
CCN1C[C@]2(OC(=O)c3ccccc3NC(=O)c3ccc(OC)c(OC)c3)CC[C@H](OC)[C@]34C1[C@H](C[C@H]23)[C@@]1(O)C[C@H](OC)[C@H]2C[C@@H]4[C@]1(O)[C@H]2OC | 34.6%
CCN1C[C@]2(OC(=O)c3ccccc3NC(=O)c3ccc(S(C)(=O)=O)cc3)CC[C@H](OC)[C@]34C1[C@H](C[C@H]23)[C@@]1(O)C[C@H](OC)[C@H]2C[C@@H]4[C@]1(O)[C@H]2OC | 8.4%
CCN1C[C@]2(OC(=O)c3ccccc3NC(=O)c3ccc(C(C)C)cc3)CC[C@H](OC)[C@]34C1[C@H](C[C@H]23)[C@@]1(O)C[C@H](OC)[C@H]2C[C@@H]4[C@]1(O)[C@H]2OC | 21%
CCN1C[C@]2(OC(=O)c3ccccc3NC(=O)c3ccc(C(=O)OC)cc3)CC[C@H](OC)[C@]34C1[C@H](C[C@H]23)[C@@]1(O)C[C@H](OC)[C@H]2C[C@@H]4[C@]1(O)[C@H]2OC | 36.4%
CCN1C[C@]2(OC(=O)c3ccccc3NC(=O)c3cccc(F)c3)CC[C@H](OC)[C@]34C1[C@H](C[C@H]23)[C@@]1(O)C[C@H](OC)[C@H]2C[C@@H]4[C@]1(O)[C@H]2OC | 27.5%
CCN1C[C@]2(OC(=O)c3ccccc3NC(=O)c3ccc(I)cc3)CC[C@H](OC)[C@]34C1[C@H](C[C@H]23)[C@@]1(O)C[C@H](OC)[C@H]2C[C@@H]4[C@]1(O)[C@H]2OC | 31.1%
